Test results taken from patent US20250127898A1, “PHOTODYNAMIC THERAPY AND DIAGNOSIS” (RMW CHO Group Limited, priority 2021, published 2025).
Where a name gives a salt, the structure may show the parent alone. Read-outs that look alike come from different tables or passages of the source. Where a SMILES comes first, the peptide text is derived from it. The star is where a group is joined. X1 = CCC1=C(C)c2cc3[nH]c(cc4nc(c(C)c5cc(C)c(cc1n2)[nH]5)[C@@H](CCC(=O)*)[C@@H]4C)c(C)c3CC

Columns and labels:
[1] = system: Human ovarian cancer cell line SKOV3; assay: Inherent cytotoxicity (dark toxicity) in SKOV3 cells (AlamarBlue viability); format: cell-based
Description: Photosensitizers (e.g. chlorin analogue, chlorin e4 disodium (provided by Advanced Molecular Technologies, Scoresby) or Talaporfin sodium (purchased from Focus Bioscience cat #HY-16477-5MG)) were resuspended in 100% dimethylsulfoxide (DMSO) at a concentration of 5.5 mM. Samples were stored at 4° C. protected from light.
All data are shown as mean±SD (where appropriate).
Untreated cells were used as a control. […] All measurements were made in quadruplicate.

[2] = system: Human ovarian cancer cell line SKOV3; assay: Phototoxicity in SKOV3 cells after 660 nm laser or LED activation (AlamarBlue viability); format: cell-based
Description: Samples were stored at 4° C. protected from light. […] All data are shown as mean±SD (where appropriate). […] Laser and LED exposure induce an equivalent response in relation to phototoxicity. Following activation, cells were cultured for a further 24 hours. Media was then replaced with fresh media containing AlamarBlue, and % viable cells remaining assessed as above. Controls included cells treated with reduced chlorin analogues but not activated by laser light; cells without reduced chlorin analogue treatment but with laser light; and untreated controls. All measurements were made in quadruplicate.

[3] = SKOV3 cells, 24 hours uptake, 660 nm laser, 50 mW/cm^2 for 5 mins (15 J/cm^2), viability 24 hours after activation, read-out: Phototoxicity μM (IC90)
[4] = Homo sapiens, SK-OV-3, light or radiation study, SKOV3 cancer cells, laser or LED, read-out: phototoxicity IC90
[5] = Homo sapiens, SK-OV-3, light or radiation study, SKOV3 cells, 24 hours uptake, 660 nm LED panel, 50 mW/cm^2 for 5 mins (15 J/cm^2), values marked *, read-out: Phototoxicity μM (IC90), measured by LED
[6] = SKOV3 cells, 24 hours incubation, no light activation
[7] = Homo sapiens, SK-OV-3, light or radiation study, SKOV3 cells, 24 hours uptake, 660 nm laser, 50 mW/cm^2 for 5 mins (15 J/cm^2), viability 24 hours after activation, read-out: Phototoxicity μM (IC90)

Compound: Reduced Phyllochlorin Methyl Ester [Compound 6]
- Dark toxicity μM (IC10) [1]: 11.650 µM
- IC90 [2, 3]: 0.371 µM

Compound: CCC1=C(C)c2cc3[nH]c(cc4nc(c(C)c5cc(C)c(cc1n2)[nH]5)[C@@H](CCC[P+](c1ccccc1)(c1ccccc1)c1ccccc1)[C@@H]4C)c(C)c3CC [Compound 27, Reduced Phyllochlorin 3-triphenylphosphonium Propyl Iodide]
- Dark toxicity μM (IC10) ([1]; human, 24 h): 1.326 µM
- IC90 [2, 4]: ≤ 0.01 µM
- IC90 [2, 5]: 0.0055 µM

Compound: Reduced Phyllochlorin N-(2-(2-(2-picolinylethoxy)ethoxy)ethyl)-N-methyl-3-amide chloride [Compound 28]
- Dark toxicity μM (IC10) [1, 6]: 1.510 µM
- IC90 ([2]; SKOV3 cells, 24 hours uptake, 660 nm LED panel, 50 mW/cm^2 for 5 mins (15 J/cm^2), values marked *, read-out: Phototoxicity μM (IC90), measured by LED): 0.0326 µM

Compound: CCC1=C(C)c2cc3[nH]c(cc4nc(c(C)c5cc(C)c(cc1n2)[nH]5)[C@@H](CCC(=O)N(C)CCCCCCCCCC[P+](c1ccccc1)(c1ccccc1)c1ccccc1)[C@@H]4C)c(C)c3CC [Compound 21, Reduced Phyllochlorin ((methylamino)-10-decyl)triphenylphosphonium Chloride Propylamide]
- Dark toxicity μM (IC10) ([1]; human, 24 h): 1.465 µM
- IC90 [2, 7]: 0.022 µM

Compound: C=Cc1c(C)c2cc3nc(c(CC(=O)N[C@@H](CC(=O)O)C(=O)O)c4[nH]c(cc5nc(cc1[nH]2)C(C)=C5CC)c(C)c4C(=O)O)[C@@H](CCC(=O)O)[C@@H]3C [Talaporfin sodium, reference compound]
- Dark toxicity μM (IC10) ([1]; human, 24 h): 11.10 µM

Compound: CCC1=C(C)c2cc3[nH]c(cc4nc(c(C)c5cc(C)c(cc1n2)[nH]5)[C@@H](CCC(=O)N(C)CCCO[C@@H]1O[C@H](CO)[C@@H](O)[C@H](O)[C@H]1O)[C@@H]4C)c(C)c3CC [Compound 9, Reduced Phyllochlorin β-D-glucosyl-N-methylpropylamide]
- Dark toxicity μM (IC10) ([1]; human, 24 h): 12.780 µM
- IC90 [2, 7]: 0.098 µM

Compound: CCC1=C(C)c2cc3[nH]c(cc4nc(c(C)c5cc(C)c(cc1n2)[nH]5)[C@@H](CCCN)[C@@H]4C)c(C)c3CC [Compound 18, Reduced Phyllochlorin 3-aminopropyl]
- Dark toxicity μM (IC10) ([1]; human, 24 h): 3.946 µM
- IC90 [2, 4]: ≤ 0.01 µM
- IC90 [2, 7]: 0.01 µM

Compound: CCC1=C(C)c2cc3[nH]c(cc4nc(c(C)c5cc(C)c(cc1n2)[nH]5)[C@@H](CCC(=O)N(C)CCOCCOCCOCCOCCOCCOC)[C@@H]4C)c(C)c3CC [Compound 14, Reduced Phyllochlorin N-methyl-N-3,6,9,12,15,18-hexaoxanonadecyl propylamide]
- Dark toxicity μM (IC10) ([1]; human, 24 h): 3.940 µM
- IC90 [2, 7]: 0.161 µM

Compound: CCC1=C(C)c2cc3[nH]c(cc4nc(c5c6[nH]c(cc1n2)c(C)c6C(=O)OC5)[C@@H](CCC(=O)O)[C@@H]4C)c(C)c3CC [Compound 39, Reduced Chlorin K]
- Dark toxicity μM (IC10) ([1]; human, 24 h): 6.613 µM
- IC90 [2, 5]: 0.141 µM

Compound: Phyllochlorin free acid [reference compound]
- Dark toxicity μM (IC10) [1, 6]: 13.50 µM
- IC90 [2, 3]: 0.43 µM

Compound: CCC1=C(C)c2cc3[nH]c(cc4nc(c(C)c5cc(C)c(cc1n2)[nH]5)[C@@H](CCC(=O)N[C@@H](CCCCN)C(=O)N[C@@H](CCCCN)C(=O)N[C@@H](CCCCN)C(=O)N[C@@H](CCCCN)C(=O)N[C@@H](CCCCN)C(=O)N(C)C)[C@@H]4C)c(C)c3CC [Compound 26, Reduced Phyllochlorin lysyl-lysyl-lysyl-lysyl-lysyl Dimethylamide Propylamide Pentahydrochloride] (X1-KKKKK-NMe2)
- Dark toxicity μM (IC10) [1, 6]: 14.670 µM
- IC90 [2, 7]: 0.494 µM

Compound: CCC1=C(C)c2cc3[nH]c(cc4nc(c(C)c5cc(C)c(cc1n2)[nH]5)[C@@H](CCC(=O)N(C)CCCOCCC[P+](c1ccccc1)(c1ccccc1)c1ccccc1)[C@@H]4C)c(C)c3CC [Compound 11]
- Dark toxicity μM (IC10) ([1]; human, 24 h): 4.347 µM
- IC90 [2, 4]: ≤ 0.01 µM
- IC90 [2, 7]: 0.003 µM
- orders of magnitude greater phototoxicity compared to Talaporfin sodium ([2]; SKOV3 cells, IC90 compared): 4 orders of magnitude

Compound: CCC1=C(C)c2cc3[nH]c(cc4nc(c(C)c5cc(C)c(cc1n2)[nH]5)[C@@H](CCC(=O)N(C)C[C@H](O)[C@@H](O)[C@H](O)[C@H](O)CO)[C@@H]4C)c(C)c3CC [Compound 10, Reduced Phyllochlorin N-meglumine-propylamide]
- Dark toxicity μM (IC10) ([1]; human, 24 h): 4.905 µM
